We go through 18 compounds from patent US8513232B2, “Substituted spirocyclic piperidine derivatives as histamine-3 (H3) receptor ligands” (Cephalon, Inc., priority 2008, dated 2013).

Structures are written as SMILES. Read-outs that look alike come from different tables or passages of the source. A value given as a limit tells only on which side of the number the result lay.

In one series the target is T1, human H3 receptor (Homo sapiens, UniProt Q9Y5N1).
T1 construct: expressed in transfected cells
The series is described as follows: Human H3 radioligand binding ([3H]-N-alpha-methylhistamine, SPA). The gist of the method:
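Compounds (0.01 nM-30 μM) competed with approximately 1 nM [3H]-N-alpha-methylhistamine for human H3 receptor in membranes of stably transfected CHO cells, 10 μg protein per well, in Tris-HCl pH 7.4/MgCl2/BSA buffer for 4 h at room temperature. Bound radioligand measured by scintillation proximity; 10 μM clobenpropit gave non-specific binding.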

In series [1] the target is T2, rat histamine H3 receptor (Rattus norvegicus, UniProt Q9QYN8).
T2 construct: encoding the entire 445-amino-acid rat histamine H3 receptor; expressed in transfected cells; membrane preparation
The series is described as follows: Rat H3 radioligand binding ([3H]-N-alpha-methylhistamine, SPA). The gist of the method:
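SPA-bead binding assay using [3H]-N-alpha-methylhistamine (approximately 1 nM final) with test compounds from 0.01 nM to 30 μM. Rat H3 receptor membranes came from stably transfected CHO-A3 cells; incubation ran 4 h at room temperature, in the dark, in Tris pH 7.4 buffer with MgCl2 and BSA. Clobenpropit (10 μM) gave non-specific binding.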

Where [2] appears, read: human H3 binding, Table D, read-out: Human H3 Ki.
Setting [3] is: rat H3 binding, Table D, read-out: Rat H3 Ki.
Setting [4] is: Human H3 binding, Table B, Examples 136-362, read-out: hum H3 binding Ki.
The mark [5] stands for this setting: Rat H3 binding, Table B, Examples 136-362, read-out: rat H3 binding Ki.
[6] abbreviates: Table A, human H3 binding, read-out: Human Ki.
The mark [7] stands for this setting: Table A, rat H3 binding, read-out: Rat Ki.

T2 sequence (Q9QYN8 whole entry): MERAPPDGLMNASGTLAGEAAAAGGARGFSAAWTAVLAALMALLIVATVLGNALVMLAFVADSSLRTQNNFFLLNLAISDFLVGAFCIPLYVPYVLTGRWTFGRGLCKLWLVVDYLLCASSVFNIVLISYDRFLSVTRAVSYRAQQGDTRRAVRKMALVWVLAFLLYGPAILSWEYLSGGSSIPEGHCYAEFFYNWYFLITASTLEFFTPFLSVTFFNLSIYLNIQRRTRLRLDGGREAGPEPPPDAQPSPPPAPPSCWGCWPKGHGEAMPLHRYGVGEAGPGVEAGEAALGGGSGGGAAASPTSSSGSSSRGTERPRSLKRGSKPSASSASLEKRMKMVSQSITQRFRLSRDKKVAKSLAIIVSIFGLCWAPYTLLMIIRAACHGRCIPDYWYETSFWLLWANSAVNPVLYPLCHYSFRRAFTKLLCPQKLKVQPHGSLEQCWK
T1 sequence (Q9Y5N1 whole entry): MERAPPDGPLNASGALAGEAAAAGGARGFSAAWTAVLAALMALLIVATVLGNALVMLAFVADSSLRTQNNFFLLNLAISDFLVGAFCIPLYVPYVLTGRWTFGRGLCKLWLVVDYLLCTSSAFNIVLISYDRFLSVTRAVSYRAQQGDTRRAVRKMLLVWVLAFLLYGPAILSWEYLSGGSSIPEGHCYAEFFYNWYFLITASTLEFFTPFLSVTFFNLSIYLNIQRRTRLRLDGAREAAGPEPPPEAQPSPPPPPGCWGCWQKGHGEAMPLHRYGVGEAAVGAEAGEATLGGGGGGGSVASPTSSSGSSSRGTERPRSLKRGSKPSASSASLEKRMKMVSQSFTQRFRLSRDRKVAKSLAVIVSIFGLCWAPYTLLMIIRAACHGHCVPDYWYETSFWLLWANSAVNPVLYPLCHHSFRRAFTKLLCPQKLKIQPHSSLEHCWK

In the case of `NC(=O)c1ccc(-c2ccc3c(c2)COC2(CCN(C4CCC4)CC2)O3)s1` [Example 679], the melting point was 250 °C (dec.). The Ki on human H3 receptor (setting [2]) was under 200 nM. Also, the inhibitory constant (Ki) in series [1] (setting [3]) is under 200 nM.

`O=S(=O)(N1CCN(c2ccc3c(c2)COC2(CCN(C4CCC4)CC2)O3)CC1)C(F)(F)F` [Example 299] displayed a melting point of 154.6 to 156.4 °C. At human H3 receptor (setting [4]), the Ki is under 200 nM. Moreover, the inhibitory constant (Ki) in series [1] (setting [5]) is under 200 nM.

`O=c1cccnn1-c1ccc2c(c1)COC1(CCN(C3CCC3)CC1)O2` [Example 228] registered a melting point of 173 to 174 °C. In addition, the Ki at human H3 receptor (setting [4]) fell in the range of 200 to 1000 nM. For the same compound, the Ki in series [1] (setting [5]) is 200 to 1000 nM.

Regarding `c1cc2c(cc1O[C@H]1CCOC1)CCC1(CCN(C3CCC3)CC1)O2` [Example 450], the melting point is 259 to 261 °C. Also, the Ki at human H3 receptor (read-out: Human H3 Ki) was under 200 nM. Further, the Ki in series [1] (read-out: Rat H3 kI) was under 200 nM.

For `CNC(=O)c1cn(-c2ccc3c(c2)COC2(CCN(C4CCC4)CC2)O3)cc1C` [Example 86], the melting point was 149 to 153 °C. For the same compound, the inhibitory constant (Ki) on human H3 receptor (setting [6]) was under 200 nM. The Ki in series [1] (setting [7]) is under 200 nM.

`O=C(N[C@H]1CCOC1)c1ccc(-c2ccc3c(c2)COC2(CCN(C4CCC4)CC2)O3)cc1Cl` [Example 611] displayed a melting point of 185 to 187 °C. Also, the Ki at human H3 receptor (setting [2]) is under 200 nM. Further, in series [1] (setting [3]), the Ki is under 200 nM.

`CN(C)C(=O)NC1CCN(c2ccc3c(c2)COC2(CCN(C4CCC4)CC2)O3)CC1` [Example 329] had a melting point of 193 to 195.2 °C. The Ki at human H3 receptor (setting [4]) was under 200 nM. Moreover, the Ki in series [1] (setting [5]) is under 200 nM.

`CNC(=O)c1ccc(-c2ccc3c(c2)COC2(CCN(C4CCC4)CC2)O3)cc1` [Example 33] gave a melting point of 198 to 199 °C. Moreover, at human H3 receptor (setting [6]), the inhibitory constant (Ki) is under 200 nM. Further, the inhibition constant Ki in series [1] (setting [7]) is under 200 nM.

In turn, `O=C(Cc1cccnc1)Nc1ccc2c(c1)COC1(CCN(C3CCC3)CC1)O2` [Example 333] had a melting point of 167 to 169 °C. Further, the Ki at human H3 receptor (setting [4]) was under 200 nM. Also, the Ki in series [1] (setting [5]) is under 200 nM.

With `CCSCc1cc(-c2ccc3c(c2)COC2(CCN(C4CCC4)CC2)O3)c[nH]c1=O` [Example 774], the melting point fell in the range of 205 to 207 °C. The Ki at human H3 receptor (setting [2]) was under 200 nM. Besides, in series [1] (setting [3]), the Ki was under 200 nM.

On to `COc1ccc(-c2ccc3c(c2)COC2(CCN(C4CCOC4)CC2)O3)cn1` (stereo not drawn) [Example 725], for which the melting point was in the range of 139 to 141 °C. Moreover, the Ki at human H3 receptor (setting [2]) was in the range of 200 to 1000 nM. Further, in series [1] (setting [3]), the Ki lay in the range of 200 to 1000 nM.

In the case of `COc1ccc(Cc2ccc3c(c2)COC2(CCN(C4CCC4)CC2)O3)cn1` [Example 516], the melting point was in the range of 229 to 231 °C. Besides, at human H3 receptor (read-out: Human H3 Ki), the inhibition constant Ki is under 200 nM. For the same compound, the Ki in series [1] (read-out: Rat H3 kI) was under 200 nM.

In the case of `CCOC(=O)c1ccc(-c2ccc3c(c2)COC2(CCN(C4CCC4)CC2)O3)cc1` [Example 28], the melting point was 148 to 149 °C. Besides, the Ki at human H3 receptor (setting [6]) was under 200 nM. Further, the inhibition constant Ki in series [1] (setting [7]) was under 200 nM.

`O=C(NCC(F)(F)F)N1CCN(c2ccc3c(c2)COC2(CCN(C4CCC4)CC2)O3)CC1` [Example 295]: the melting point fell in the range of 182.5 to 183.5 °C. Also, at human H3 receptor (setting [4]), the inhibitory constant (Ki) is under 200 nM. In addition, the Ki in series [1] (setting [5]) was under 200 nM.

The compound `O=C1CCCN1c1ccc2c(c1)COC1(CCN(C3CCC3)CC1)O2` [Example 78] returned a melting point of 187 to 188 °C. For the same compound, the inhibition constant (Ki) on human H3 receptor (setting [6]) was under 200 nM. Besides, in series [1] (setting [7]), the Ki is 200 to 1000 nM.

Compound `CS(=O)(=O)c1ccc(-c2ccc3c(c2)COC2(CCN(C4CCC4)CC2)O3)s1` [Example 652] registered a melting point of 159 to 161 °C. The Ki on human H3 receptor (setting [2]) is under 200 nM. Besides, in series [1] (setting [3]), the inhibitory constant (Ki) was under 200 nM.

`CC(C)NC(=O)c1ccc(-c2ccc3c(c2)CCC2(CCN(C4CCC4)CC2)O3)cc1Cl` [Example 587] gave a melting point of 155 to 156 °C. Further, the inhibition constant (Ki) on human H3 receptor (setting [2]) was under 200 nM. For the same compound, in series [1] (setting [3]), the Ki is under 200 nM.

`O=c1ccc(-c2ccc3c(c2)COC2(CCN(C4CCC4)CC2)O3)cn1CCO` [Example 720] yielded a melting point of 129 to 130 °C. Also, at human H3 receptor (setting [2]), the inhibitory constant (Ki) was under 200 nM. Moreover, the inhibition constant (Ki) in series [1] (setting [3]) was under 200 nM.
